From patent publication US6844151B1, “Methods for production of arrays with modified oligonucleotide and polynucleotide compositions” (Oligos Etc. Inc., priority 1999, dated 2005) come the findings set out here.

[pOEt] = p-ethoxy (ethyl phosphotriester) internucleotide linkage

Series [1] has as its system Regular DNA 20-mer oligonucleotide SEQ ID NO:1. Description: Tm of 20-mer duplexes, modified SEQ ID NO:2 strand bound to Regular DNA SEQ ID NO:1. Type of series: binding. The note with it: duplex with Regular DNA SEQ ID NO:1; 4 μM each; 50 mM NaCl, 10 mM PO4 buffer, pH 7.4. The procedure: (§1) The stability of duplexes having 2′-substituted nucleotides versus duplexes without such modification was tested by examining the Tm of these complexes. 4 μM each of 20-mer oligonucleotide (5′-ggt ggt tcc tcc tca gtc gg-3′; SEQ ID NO:1) and its complement (5′- ccg act gag aag gaa cca cc-3;SEQ ID NO:2) were bound in a solution of 50 mM NaCl, 10 mM PO4 buffer, pH 7.4. Each of the nucleotides of the oligonucleotide had the same 2′ group. Following binding, the melting temperature was determined as described. (See L. L. Cummins et al., Nucleic Acids Research 23:2019-2024 (1995).

Series [2] relates to Regular RNA 20-mer oligonucleotide SEQ ID NO:1. Description: Tm of 20-mer duplexes, modified SEQ ID NO:2 strand bound to Regular RNA SEQ ID NO:1. Type of series: binding. The note with it: duplex with Regular RNA SEQ ID NO:1; 4 μM each; 50 mM NaCl, 10 mM PO4 buffer, pH 7.4. The procedure: as §1

Take “p-ethoxy DNA: SEQ ID NO:2 20-mer as p-ethoxy DNA (CCGACTGAGAAGGAACCACC; DNA, all [pOEt], methylation of C not given here)”: the Tm – broadly, the temperature at which the thermal transition is half complete – in series [1] came to 55 °C. As for “2′-O-methyl: SEQ ID NO:2 20-mer, every nucleotide with 2′-O-methyl group (CCGACTGAGAAGGAACCACC; all 2'-O-methyl, backbone and T or U not given here)”, the Tm in series [2] was found to be 79 °C. The same measure, in the same setting: the figure for “p-ethoxy RNA: SEQ ID NO:2 20-mer as p-ethoxy RNA (CCGACTGAGAAGGAACCACC; RNA, all [pOEt], T or U not given here)” is 56 °C. “Regular DNA: unmodified DNA 20-mer, SEQ ID NO:2 (5′-ccg act gag aag gaa cca cc-3′) (CCGACTGAGAAGGAACCACC; DNA, backbone not given here) [reference compound]”: the Tm in series [2] came to 66 °C. Same read-out and setting: under “p-ethoxy 2′-O-methyl: SEQ ID NO:2 20-mer as p-ethoxy 2′-O-methyl (CCGACTGAGAAGGAACCACC; all 2'-O-methyl, all [pOEt], T or U not given here)” stands 71 °C.
